Test system: NO production in sinusoidal endothelial cells
Assay: NO measurement (nitrite in conditioned medium of sinusoidal endothelial cells)
Type: cell-based, rat
Description: Cell isolation and culture. Sinusoidal endothelial cells were isolated from male Sprague-Dawley rats (450-500 g) (Harlan, Indianapolis, Ind.). In brief, after in situ perfusion of the liver with 20 mg/100 mg pronase (Roche Molecular Biochemicals, Indianapolis, Ind.), followed by collagenase (Worthington Biochemical, Lakewood, N.J.), dispersed cell suspensions were removed from a layered discontinuous density gradient of 8.2 and 15.6% Accudenz (Accurate Chemical and Scientific, Westbury, N.Y.), further purified by centrifugal elutriation (18 ml/min flow), and were grown in medium containing 20% serum (10% horse/calf). The purity of endothelial cells was documented by their uptake of fluorescently labeled di-l-acetoacetylated low-density lipoprotein as described (21). Only primary sinusoidal endothelial isolates of >95% purity were used for study. Experiments were performed with cells frorrr a minimum three different isolations (for all experiments).
Animal model of liver injury and portal hypedension. Liver injury and portal hypertension were induced by performing bile duct ligation in 450- to 500-gram male retired breeder Sprague-Dawley rats as described in Liu and 20- to 25-gram male BALB/c mice. Briefly, bile duct ligation was performed by surgical isolation and ligation of the common bile duct. This model creates a portal-based fibrogenic response and portal hypertension 10-14 days after surgery (Liu). For study of injured sinusoidal endothelial cells, we used the rat model of bile duct ligation (10-14 days postsurgery); for in vivo study (primarily to conserve the use of active compound), we used the mouse model of bile duct ligation (examining portal pressure 4 wk postsurgery). In sham-operated rats or mice, laparotomy without isolation and section of the bile duct was performed. Studies were approved by the local Institutional Animal Care and Use Committees. Portal pressure measurement. Portal hypertension was induced in male BALB/c mice by bile duct ligation as above. Cicletanine (5 mg·kg^−1·day^−1) or vehicle was given by gavage as a single daily dose for 10 days before portal pressure measurement as described in Liue. In brief, mice were anesthetized, and an intravenous catheter (Becton Dickinson Vascular Access, Sandy, Utah) was introduced in the portal vein and secured with a silk tie. A calibrated low-pressure transducer (Digi-Med, Louisville, Ky.) was connected to the portal vein catheter, and portal pressure was recorded continuously using the Digi-Med Integrator 200 System (Digi-bled).
NO measurement. To assess NO production, we analyzed the release of nitrite, the stable breakdown product of NO, using a nitrite/nitrate assay kit (Cayman Chemicals, Ann Arbor, Mich.), following the manufacturer's instructions. Briefly, conditioned medium from sinusoidal endothelial cells with or without cicletanine treatment were loaded on a 96-well plate and mixed with both enzyme cofactor and nitrate reductase. After incubation at room temperature for 3 h, 100 μl Griess reagent mix were added to each well. After 10 more minutes at room temperature, the absorbance of each well was determined on a microplate reader at 540 nm, and the nitrite concentrations were deduced from a standard curve.

Cc1ncc2c(c1O)COC2c1ccc(Cl)cc1 (centres unmarked) [cicletanine, 3-(4-chlorophenyl)-1,3-dihydro-7-hydroxy-6-methylfuro-(3,4-c) pyridine]
dose dependence of effect on nitrite production (50 or 100 nM, 2 h): dose dependent
nitrite levels in conditioned medium (2 h exposure, normal sinusoidal endothelial cells): significantly increased
nitrite production (cells transduced with adenovirus 24 h, then cicletanine 100 nM 2 h): stimulated
time at which nitrite levels started to increase (cicletanine 100 nM, 0-4 h): 30 min
nitrite production (sinusoidal endothelial cells injured by bile duct ligation, 2 h): increase
